Experimental data from patent US20100324829A1, “METHOD OF SELECTING HLA-DP4 LIGANDS AND THE APPLICATIONS THEREOF” (priority 2001, published 2010).
Changes are numbered by the printed parent chain. Read-outs that look alike come from different tables or passages of the source. Where a SMILES comes first, the peptide text is derived from it.

Experiments:
[1] = target: T1, HLA-DP4 molecule DPA1*0103/DPB1*0402 (DP402) (Homo sapiens, UniProt P04440+P20036, A65V/A84D/A85E/L207M); test: biochemical; format: binding; conditions: for binding to the HLA-DP*0402 molecule: FIG. 1, in words, tracer bUNK1 10 nM
T1 construct: purified from various human B lymphocyte lines transformed with the Epstein Barr virus (EBV), which are homozygotes for DP; endogenous in cells
T1 sequence (P20036 29-260): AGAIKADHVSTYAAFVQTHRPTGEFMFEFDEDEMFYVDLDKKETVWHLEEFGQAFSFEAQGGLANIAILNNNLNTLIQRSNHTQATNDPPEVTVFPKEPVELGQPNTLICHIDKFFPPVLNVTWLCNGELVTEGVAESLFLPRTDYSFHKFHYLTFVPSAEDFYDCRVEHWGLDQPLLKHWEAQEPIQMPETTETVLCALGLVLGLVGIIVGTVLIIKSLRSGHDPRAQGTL
T1 sequence (P04440 30-258 A65V/A84D/A85E): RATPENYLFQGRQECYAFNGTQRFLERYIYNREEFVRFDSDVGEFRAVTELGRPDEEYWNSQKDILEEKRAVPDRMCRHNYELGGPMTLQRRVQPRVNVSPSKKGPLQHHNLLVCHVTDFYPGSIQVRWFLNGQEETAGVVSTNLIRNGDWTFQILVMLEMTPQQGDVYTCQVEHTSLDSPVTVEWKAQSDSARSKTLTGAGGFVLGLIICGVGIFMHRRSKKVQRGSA

[2] = target: T2, HLA-DP4 molecule DPA1*0103/DPB1*0401 (DP401) (Homo sapiens, UniProt P04440+P20036); test: biochemical; format: binding; conditions: for binding to the HLA-DP*0401 molecule: FIG. 1, in words, tracer bUNK1 10 nM
T2 construct: purified from various human B lymphocyte lines transformed with the Epstein Barr virus (EBV), which are homozygotes for DP; endogenous in cells
T2 sequence (P20036 29-260): T1 sequence (P20036 29-260)
T2 sequence (P04440 30-258): T1 sequence (P04440 30-258 A65V/A84D/A85E) with V36A, D55A, E56A

[3] = DP*0402 IC50 (nM), Table XV, HLA-DP4-binding activity
[4] = IC50 (nM) 402, Table XIII, binding to DPB1*0402, competition binding assay
[5] = DP*0401 IC50 (nM), Table XV, HLA-DP4-binding activity
[6] = IC50 (nM) 401, Table XIII, binding to DPB1*0401, competition binding assay

CC(C)C[C@H](NC(=O)[C@H](CCCCN)NC(=O)[C@H](CCC(=O)O)NC(=O)[C@H](Cc1ccc(O)cc1)NC(=O)[C@H](C)N)C(=O)N[C@@H](CO)C(=O)N[C@@H](C)C(=O)N[C@@H](CCC(=O)O)C(=O)N[C@@H](CCC(N)=O)C(=O)N[C@@H](CO)C(=O)N1CCC[C@H]1C(=O)N1CCC[C@H]1C(=O)N1CCC[C@H]1C(=O)N[C@@H](Cc1ccc(O)cc1)C(=O)N[C@@H](CO)C(=O)N1CCC[C@H]1C(=O)O [MART1 103-118]
IC50 [1, 3]: > 10000 nM | IC50 [1, 4]: > 10000 nM | IC50 [2, 5]: > 10000 nM | IC50 [2, 6]: > 10000 nM

CC(C)C[C@H](NC(=O)[C@H](CC(=O)O)NC(=O)[C@H](Cc1ccc(O)cc1)NC(=O)[C@H](CCC(N)=O)NC(=O)[C@@H](NC(=O)[C@H](CC(=O)O)NC(=O)[C@H](C)NC(=O)[C@@H]1CCCN1C(=O)[C@H](C)NC(=O)CNC(=O)[C@@H]1CCCN1C(=O)CN)C(C)C)C(=O)N[C@@H](Cc1ccc(O)cc1)C(=O)N[C@@H](CC(C)C)C(=O)N[C@@H](CC(N)=O)C(=O)N[C@H](C(=O)N[C@@H](C)C(=O)N[C@@H](CC(N)=O)C(=O)N[C@@H](CCCNC(=N)N)C(=O)N[C@@H](CCCNC(=N)N)C(=O)O)C(C)C [IL3 127-146, reference compound]
IC50 [1]: 30 nM | IC50 [2]: 30.4 nM

CC[C@H](C)[C@H](NC(=O)[C@@H](N)Cc1c[nH]c2ccccc12)C(=O)N[C@H](C(=O)N[C@@H](CCC(N)=O)C(=O)N[C@@H](CS)C(=O)N[C@@H](Cc1ccccc1)C(=O)N[C@@H](CC(C)C)C(=O)N1CCC[C@H]1C(=O)N[C@H](C(=O)O)C(C)C)[C@@H](C)O (H-WITQCFLPV-OH; N-terminus and C-terminus assumed)
IC50 ([1]; calculated activity (using the DP*0402-binding assay)): 67 nM | IC50 ([2]; calculated activity (using the DP*0401-binding assay)): 20 nM

EPRAPWIEQEGPEYWDQE [HCI 46-63, reference compound]
binding to the HLA-DP*0402 molecule [1]: do not bind | binding to the HLA-DP*0401 molecule [2]: do not bind

CSCC[C@H](NC(=O)[C@@H]1CCCN1C(=O)[C@@H](NC(=O)[C@H](C)NC(=O)[C@H](Cc1ccccc1)NC(=O)[C@@H]1CCCN1C(=O)[C@H](CCSC)NC(=O)[C@H](C)NC(=O)[C@H](CC(C)C)NC(=O)[C@H](Cc1ccc(O)cc1)NC(=O)[C@H](Cc1ccccc1)NC(=O)[C@H](CCC(=O)O)NC(=O)[C@H](CC(C)C)NC(=O)[C@@H](N)CC(C)C)[C@@H](C)O)C(=O)N[C@@H](CCC(=O)O)C(=O)N[C@@H](C)C(=O)N[C@@H](CCC(=O)O)C(=O)N[C@@H](CC(C)C)C(=O)N[C@@H](C)C(=O)N[C@@H](CCCNC(=N)N)C(=O)N[C@@H](CCCNC(=N)N)C(=O)N[C@@H](CO)C(=O)N[C@@H](CC(C)C)C(=O)N[C@@H](C)C(=O)N[C@@H](CCC(N)=O)C(=O)O [NY-ESO1 87-111]
IC50 [1, 3]: 87 nM | IC50 [1, 4]: 83 nM | IC50 [2, 5]: 186 nM | IC50 [2, 6]: 183 nM

FNNFTVSFWLRVPKVSA [TT 947-963]
binding to the HLA-DP*0402 molecule [1]: effectively bind | binding to the HLA-DP*0401 molecule [2]: effectively bind

CC[C@H](C)[C@H](NC(=O)[C@@H](NC(=O)[C@H](CC(=O)O)NC(=O)[C@H](C)NC(=O)[C@H](CO)NC(=O)[C@@H](N)CC(N)=O)[C@@H](C)O)C(=O)N[C@@H](CO)C(=O)N[C@@H](CO)C(=O)N[C@@H](Cc1ccc(O)cc1)C(=O)N[C@@H](Cc1ccccc1)C(=O)N[C@H](C(=O)NCC(=O)N[C@@H](CCCCN)C(=O)N[C@@H](CCSC)C(=O)N[C@@H](Cc1ccc(O)cc1)C(=O)N[C@@H](Cc1ccccc1)C(=O)N[C@@H](CC(N)=O)C(=O)N[C@@H](CC(C)C)C(=O)O)C(C)C [73-90]
IC50 [1, 4]: > 10000 nM | IC50 ([1]; IC50 (nM) DP0402, Api m1 overlapping peptides, tracer bUNK 1-17 10 nM, pH 5, 24 h): > 10000 nM | IC50 [2, 6]: > 10000 nM | IC50 ([2]; IC50 (nM) DP0401, Api m1 overlapping peptides, tracer bUNK 1-17 10 nM, pH 5, 24 h): > 10000 nM
